In US20100048597A1 (Novartis AG, priority 2006, published 2010) one finds IC50 data, which are given here for 16 compounds.

In test [1] the target is T1, CDK9/cyclinT1 (Homo sapiens, UniProt P50750).
T1 construct: purchased Millipore
Put plainly: CDK9/cyclinT1 kinase assay, IMAP fluorescence polarization. It is filed as biochemical. The method, boiled down:
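Recombinant purified enzyme complexes assayed by IMAP fluorescence polarization with 1% final DMSO, 2 h at room temperature; stopped with 1× Developer buffer (85% A/15% B) plus IMAP beads 1/400, then 1 h further at room temperature. IC50 from normalized mP versus log compound concentration.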
For orientation: In fluorescence polarisation assays a small probe gives low polarisation when free and higher when bound to something large.

Test [2] deals with T2, CDK1/cyclinB (Homo sapiens, UniProt P06493).
T2 construct: purchased Millipore
Put plainly: CDK1/cyclinB kinase assay, IMAP fluorescence polarization. In kind it is biochemical. To be noted: read-out: CDK1 IC50. The method, boiled down: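 IMAP fluorescence polarization assay on recombinant purified enzyme, compounds at final 1% DMSO. Reaction run 2 h at room temperature, stopped, held 1 h more before reading polarization.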

The target in test [3] is T3, CDK2/cyclinA (Homo sapiens, UniProt P24941).
T3 construct: purchased Millipore
Put plainly: CDK2/cyclinA kinase assay, IMAP fluorescence polarization. In kind it is biochemical. The method, boiled down: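 Recombinant purified enzyme reactions run 2 hours at room temperature with 1% DMSO final. Stopped with 1× Developer buffer (100% A) and IMAP beads 1/400, then 1 hour more before fluorescence polarization read. IC50 from mP values versus log concentration.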

Test [4] addresses T4, CDK7/cyclinH/MAT1 (Homo sapiens, UniProt P50613).
T4 construct: purchased Millipore
In words: CDK7/cyclinH/Mat1 kinase assay, IMAP fluorescence polarization. In kind it is biochemical. The method, then:
Kinase assays were performed on recombinant purified enzymes using the non-radioactive IMAP fluorescence polarization assay format.
Compound stocks were prepared and diluted in DMSO and were added to kinase reactions at a 1/100 dilution for a final concentration of 1% DMSO. The components were added together to final concentrations listed in the tables below and incubated for two hours at room temperature.
The reactions were stopped by addition of stop solution.
CDK9/CDK1/CDK7: final stop concentration is 1× Developer buffer (85% A/15% B), IMAP beads 1/400
The samples were allowed to incubate for one more hour at room temperature and then the fluorescence polarization was measured. The plate normalized millipolarization (mP) values were plotted against the log of compound concentration for each compound and IC50 values were calculated using the spotfire IC50 calculator and confirmed by visual analysis.

The test system of test [5] is RNA Polymerase II CTD Serine2 Phosphorylation. Put plainly: H5 (Ser2) Ab High Content Screen: RNA Polymerase II CTD Serine2 Phosphorylation Assay in Hep3B cells. As to conditions: Homo sapiens, 2 hours with compound, H5 antibody staining. It is filed as cell-based. The method, then: H5 (also referred as Ser2) Ab High Content Screen: RNA Polymerase II CTD Serine2 Phosphorylation Assay
1. Cells are plated into 384 well plates: 30 μl of Hep3B cells (4,000 cells/30 μl) in DMEM with 3% FBS are plated into wells of a tissue culture treated clear bottomed 384 well plate. Cells are allowed to adhere during an overnight incubation.
2. Cells are treated with compounds for two hours: 10 μl of DMEM with 3% FBS is added to each well with a final concentration of DMSO equal to 1%. Cells are incubated with compounds for 2 hours.
3. Cells are fixed and permeabilized. Cells are washed with 30 mM HEPES pH=7.3 then fixed in 4% paraformaldehyde in 30 mM HEPES pH=7.3 for one hour at room temperature. The fix is removed by washing the cells with Tris buffered saline (TBS) and the cells are permeabilized by incubation in TBS with 0.5% triton X-100 for 30 minutes at room temperature. Triton is removed by washing the cells with TBS.
4. […] Incubate primary H5 Ab (1/250 ) overnight at 4 degrees in TBS with 1% BSA and 0.1% Tween-20. The next day wash cells with TBS. […] Wash cells with PBS.
5. Measure staining using the In-cell Analyzer system from GE Healthcare.

Test [6] has as its target CDK4 (Homo sapiens, UniProt P11802). In words: CDK4 kinase assay (Table F). In kind it is biochemical.
Test [7] has as its target CDK5 (Homo sapiens, UniProt Q00535). In words: CDK5 kinase assay (Table F). It is filed as biochemical.

T4 sequence (P50613 whole entry): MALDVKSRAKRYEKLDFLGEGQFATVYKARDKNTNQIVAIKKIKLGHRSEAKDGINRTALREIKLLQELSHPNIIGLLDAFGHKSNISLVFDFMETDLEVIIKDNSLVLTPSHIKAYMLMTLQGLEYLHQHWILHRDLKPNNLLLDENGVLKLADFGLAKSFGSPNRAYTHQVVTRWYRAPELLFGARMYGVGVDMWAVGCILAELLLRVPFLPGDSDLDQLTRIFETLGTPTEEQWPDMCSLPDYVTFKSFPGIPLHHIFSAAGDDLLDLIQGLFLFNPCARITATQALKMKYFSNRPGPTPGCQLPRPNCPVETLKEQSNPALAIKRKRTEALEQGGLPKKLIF
T4 sequence (P51946 whole entry partner): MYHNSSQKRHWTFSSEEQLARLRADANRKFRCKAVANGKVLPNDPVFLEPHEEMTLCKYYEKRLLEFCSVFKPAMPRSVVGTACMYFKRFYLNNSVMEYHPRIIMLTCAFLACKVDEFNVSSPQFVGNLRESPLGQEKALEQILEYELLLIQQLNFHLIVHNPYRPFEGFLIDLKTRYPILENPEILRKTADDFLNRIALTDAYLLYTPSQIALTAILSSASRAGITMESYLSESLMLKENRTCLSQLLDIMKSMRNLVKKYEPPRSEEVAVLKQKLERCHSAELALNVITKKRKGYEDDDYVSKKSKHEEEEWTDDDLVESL
T4 sequence (P51948 whole entry partner): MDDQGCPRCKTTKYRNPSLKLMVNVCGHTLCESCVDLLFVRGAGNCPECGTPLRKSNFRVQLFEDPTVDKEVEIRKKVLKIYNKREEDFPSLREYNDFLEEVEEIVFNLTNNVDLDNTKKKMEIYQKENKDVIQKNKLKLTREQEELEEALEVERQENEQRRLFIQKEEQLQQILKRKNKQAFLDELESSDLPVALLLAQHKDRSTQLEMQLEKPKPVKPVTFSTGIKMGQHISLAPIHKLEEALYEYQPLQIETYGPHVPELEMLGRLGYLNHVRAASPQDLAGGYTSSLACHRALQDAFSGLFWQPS
Chain of CDK5 (Q00535 whole entry, species assumed): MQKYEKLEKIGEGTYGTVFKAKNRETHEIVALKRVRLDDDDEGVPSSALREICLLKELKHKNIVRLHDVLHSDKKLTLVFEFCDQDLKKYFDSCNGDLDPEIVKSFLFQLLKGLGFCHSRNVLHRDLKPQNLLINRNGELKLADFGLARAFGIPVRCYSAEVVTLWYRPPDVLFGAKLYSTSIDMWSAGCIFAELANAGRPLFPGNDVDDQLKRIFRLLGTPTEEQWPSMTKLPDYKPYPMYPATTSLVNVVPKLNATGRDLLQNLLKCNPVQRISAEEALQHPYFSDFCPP
Chain of CDK5 (Q15078 whole entry partner, species assumed): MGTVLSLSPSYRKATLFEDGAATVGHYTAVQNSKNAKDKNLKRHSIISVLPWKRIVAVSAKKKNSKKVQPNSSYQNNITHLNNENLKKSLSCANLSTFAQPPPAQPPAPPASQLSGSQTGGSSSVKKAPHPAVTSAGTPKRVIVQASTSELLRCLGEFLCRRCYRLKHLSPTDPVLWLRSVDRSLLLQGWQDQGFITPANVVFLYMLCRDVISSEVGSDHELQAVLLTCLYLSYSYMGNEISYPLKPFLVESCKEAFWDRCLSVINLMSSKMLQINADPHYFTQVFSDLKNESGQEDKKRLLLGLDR
T1 sequence (P50750 whole entry): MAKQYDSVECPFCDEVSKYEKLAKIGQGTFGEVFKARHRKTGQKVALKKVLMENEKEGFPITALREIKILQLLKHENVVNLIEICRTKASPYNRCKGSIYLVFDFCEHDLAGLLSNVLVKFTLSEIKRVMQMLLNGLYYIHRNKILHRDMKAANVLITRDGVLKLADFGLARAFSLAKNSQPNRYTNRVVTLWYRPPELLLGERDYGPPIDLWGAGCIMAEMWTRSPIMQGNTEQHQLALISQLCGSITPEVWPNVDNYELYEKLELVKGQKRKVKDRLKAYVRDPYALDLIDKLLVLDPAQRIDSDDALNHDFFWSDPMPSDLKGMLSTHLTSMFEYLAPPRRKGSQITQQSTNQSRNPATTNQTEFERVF
T1 sequence (O60563 whole entry partner): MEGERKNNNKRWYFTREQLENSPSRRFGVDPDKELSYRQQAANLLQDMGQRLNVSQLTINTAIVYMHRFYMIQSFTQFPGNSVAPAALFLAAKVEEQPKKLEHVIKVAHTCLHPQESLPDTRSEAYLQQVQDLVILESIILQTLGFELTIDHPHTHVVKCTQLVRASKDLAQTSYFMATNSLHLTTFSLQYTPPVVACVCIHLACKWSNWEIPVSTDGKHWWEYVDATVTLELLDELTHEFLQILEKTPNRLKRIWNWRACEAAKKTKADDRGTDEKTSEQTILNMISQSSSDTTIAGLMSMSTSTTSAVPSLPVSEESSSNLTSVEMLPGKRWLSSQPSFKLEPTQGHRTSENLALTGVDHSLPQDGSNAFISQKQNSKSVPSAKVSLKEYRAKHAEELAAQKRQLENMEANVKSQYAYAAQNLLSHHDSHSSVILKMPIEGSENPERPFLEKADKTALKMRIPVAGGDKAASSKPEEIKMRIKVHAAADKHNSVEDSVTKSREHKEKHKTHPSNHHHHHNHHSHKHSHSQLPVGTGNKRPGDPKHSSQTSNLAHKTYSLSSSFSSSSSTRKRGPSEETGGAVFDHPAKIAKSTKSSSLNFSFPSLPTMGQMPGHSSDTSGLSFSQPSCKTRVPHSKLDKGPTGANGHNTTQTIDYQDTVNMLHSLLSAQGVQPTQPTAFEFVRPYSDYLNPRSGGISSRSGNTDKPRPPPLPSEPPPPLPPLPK
T2 sequence (P06493 whole entry): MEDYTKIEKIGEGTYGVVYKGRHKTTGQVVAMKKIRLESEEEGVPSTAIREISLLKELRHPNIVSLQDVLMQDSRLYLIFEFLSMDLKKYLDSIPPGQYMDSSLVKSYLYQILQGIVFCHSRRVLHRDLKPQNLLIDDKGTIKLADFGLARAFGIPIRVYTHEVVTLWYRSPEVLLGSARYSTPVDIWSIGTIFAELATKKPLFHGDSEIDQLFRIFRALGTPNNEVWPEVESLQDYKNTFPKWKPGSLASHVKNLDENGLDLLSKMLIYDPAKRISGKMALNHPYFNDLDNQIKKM
T2 sequence (P14635 whole entry partner): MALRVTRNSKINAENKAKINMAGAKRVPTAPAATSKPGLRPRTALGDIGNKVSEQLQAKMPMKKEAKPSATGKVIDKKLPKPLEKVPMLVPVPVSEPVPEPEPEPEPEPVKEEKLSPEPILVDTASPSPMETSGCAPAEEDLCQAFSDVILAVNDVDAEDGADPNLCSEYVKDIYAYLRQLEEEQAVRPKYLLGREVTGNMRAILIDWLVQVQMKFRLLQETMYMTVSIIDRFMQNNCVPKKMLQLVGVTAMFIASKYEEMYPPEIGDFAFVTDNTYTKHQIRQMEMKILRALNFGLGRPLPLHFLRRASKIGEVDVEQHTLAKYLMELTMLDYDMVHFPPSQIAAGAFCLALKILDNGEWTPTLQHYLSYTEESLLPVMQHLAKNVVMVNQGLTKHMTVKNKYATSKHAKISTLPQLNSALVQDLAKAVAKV
Chain of CDK4 (P11802 whole entry, species assumed): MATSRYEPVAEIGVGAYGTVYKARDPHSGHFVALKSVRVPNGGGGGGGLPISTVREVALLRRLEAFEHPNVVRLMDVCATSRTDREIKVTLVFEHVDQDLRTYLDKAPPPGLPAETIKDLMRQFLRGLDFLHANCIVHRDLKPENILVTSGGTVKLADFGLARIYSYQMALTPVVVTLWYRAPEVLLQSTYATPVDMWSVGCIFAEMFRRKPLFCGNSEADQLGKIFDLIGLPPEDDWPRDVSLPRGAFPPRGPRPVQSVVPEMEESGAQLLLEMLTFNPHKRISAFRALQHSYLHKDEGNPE
Chain of CDK4 (P24385 whole entry partner, species assumed): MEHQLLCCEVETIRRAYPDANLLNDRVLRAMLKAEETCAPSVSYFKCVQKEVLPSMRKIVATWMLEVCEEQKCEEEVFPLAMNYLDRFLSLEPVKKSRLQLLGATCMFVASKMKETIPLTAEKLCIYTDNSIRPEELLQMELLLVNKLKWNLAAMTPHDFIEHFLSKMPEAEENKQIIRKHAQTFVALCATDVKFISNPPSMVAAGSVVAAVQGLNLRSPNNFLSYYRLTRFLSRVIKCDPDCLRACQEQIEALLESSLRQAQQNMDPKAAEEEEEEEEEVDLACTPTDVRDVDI

Usually IC50 stands for the concentration needed to halve the response being measured. For the compound `CNCCNc1nccc(-c2ccnc(Nc3cccc(Cl)c3)n2)c1C` [Compound 3, N-{4-[2-(3-Chloro-phenylamino)-pyrimidin-4-yl]-3-methyl-pyridin-2-yl}-N′-methyl-ethane-1,2-diamine], the half-maximal inhibitory concentration (IC50) in test [1], in test [2], in test [3], in test [4], in test [5] and in test [6] was less than 5 µM in each case. The 50% inhibitory concentration (IC50) in test [7] was less than 5 µM.

For `CC(=O)NCCCNc1nccc(-c2ccnc(Nc3cccc(Cl)c3)n2)c1C` [Compound 6, N-(3-{4-[2-(3-Chloro-phenylamino)-pyrimidin-4-yl]-3-methyl-pyridin-2-ylamino}-propyl)-acetamide], the IC50 in test [1] was less than 5 µM; in test [2] it was 5 to 15 µM; in test [3] it was less than 5 µM; in test [4], less than 5 µM; in test [5] it was 5 to 15 µM; in test [6], 5 to 15 µM.

As for `CC(=O)NCCCNc1nccc(-c2ccnc(Nc3cccc([N+](=O)[O-])c3)n2)c1C` [Compound 25, N-(3-{3-Methyl-4-[2-(3-nitro-phenylamino)-pyrimidin-4-yl]-pyridin-2-ylamino}-propyl)-acetamide], the IC50 in test [1] was less than 5 µM; in test [2], less than 5 µM; in test [3], less than 5 µM; in test [4], less than 5 µM; in test [5], less than 5 µM; in test [6] it was 5 to 15 µM. In addition, the IC50 in test [7] is less than 5 µM.

As to `CC(=O)NCCCNc1cc(-c2nc(Nc3cccc(Cl)c3)ncc2C)ccn1` [Compound 32, N-(3-{4-[2-(3-Chloro-phenylamino)-5-methyl-pyrimidin-4-yl]-pyridin-2-ylamino}-propyl)-acetamide], the IC50 was less than 5 µM in test [1]; less than 5 µM in test [2]; less than 5 µM in test [3]; less than 5 µM in test [4]; less than 5 µM in test [5]; 15 to 50 µM in test [6]. In test [7], this compound registered an IC50 of less than 5 µM.

In the case of `COc1cnccc1-c1ccnc(Nc2cccc(Cl)c2)n1` [Compound 45, (3-Chloro-phenyl)-[4-(3-methoxy-pyridin-4-yl)-pyrimidin-2-yl]-amine], the 50% inhibitory concentration (IC50) in test [1] was less than 5 µM; in test [2], less than 5 µM; in test [3], less than 5 µM; in test [4], more than 50 µM; in test [5], less than 5 µM; in test [6], 5 to 15 µM. Besides, the half-inhibitory concentration (IC50) in test [7] was less than 5 µM.

As for `COc1cnccc1-c1ccnc(Nc2cccc(S(C)(=O)=O)c2)n1` [Compound 46, (3-Methanesulfonyl-phenyl)-[4-(3-methoxy-pyridin-4-yl)-pyrimidin-2-yl]-amine], the IC50 was less than 5 µM in test [1]; less than 5 µM in test [2]; less than 5 µM in test [3]; less than 5 µM in test [4]; less than 5 µM in test [5]; 5 to 15 µM in test [6]. This compound gave a half-maximal inhibitory concentration (IC50) in test [7] of less than 5 µM.

For `NCCNc1ncccc1-c1ccnc(Nc2cccc(Cl)c2)n1` [Compound 52, N-{3-[2-(3-Chloro-phenylamino)-pyrimidin-4-yl]-pyridin-2-yl}-ethane-1,2-diamine], the half-maximal inhibitory concentration (IC50) in test [1], in test [2], in test [3], in test [4], in test [5] and in test [6] was less than 5 µM throughout. Besides, the IC50 in test [7] was less than 5 µM.

Take `NCCCNc1ncccc1-c1ccnc(Nc2cccc(Cl)c2)n1` [Compound 55, N-{3-[2-(3-Chloro-phenylamino)-pyrimidin-4-yl]-pyridin-2-yl}-propane-1,3-diamine]: the half-inhibitory concentration (IC50) in test [1], in test [2], in test [3], in test [4], in test [5] and in test [6] was less than 5 µM throughout. The compound further yielded an IC50 in test [7] of less than 5 µM.

Regarding `N#Cc1cccc(Nc2nccc(-c3cccnc3NCCCN)n2)c1` [Compound 60, 3-{4-[2-(3-Amino-propylamino)-pyridin-3-yl]-pyrimidin-2-ylamino}-benzonitrile], the 50% inhibitory concentration (IC50) in test [1], in test [2], in test [3], in test [4], in test [5] and in test [6] was less than 5 µM in each case. Also, the IC50 in test [7] is less than 5 µM.

Regarding `CC(C)(CN)CNc1ncccc1-c1ccnc(Nc2cccc(Cl)c2)n1` [Compound 61, N-{3-[2-(3-Chloro-phenylamino)-pyrimidin-4-yl]-pyridin-2-yl}-2,2-dimethyl-propane-1,3-diamine], the half-maximal inhibitory concentration (IC50) in test [1], in test [2], in test [3], in test [4], in test [5] and in test [6] was less than 5 µM throughout. Moreover, in test [7], the IC50 fell in the range of 15 to 50 µM.

Regarding `OCCCNc1ncccc1-c1ccnc(Nc2cccc(Cl)c2)n1` [Compound 74, 3-{3-[2-(3-Chloro-phenylamino)-pyrimidin-4-yl]-pyridin-2-ylamino}-propan-1-ol], the IC50 in test [1] is less than 5 µM; in test [2], less than 5 µM; in test [3], less than 5 µM; in test [4] it was less than 5 µM; in test [5], less than 5 µM; in test [6], 15 to 50 µM. The half-maximal inhibitory concentration (IC50) in test [7] is less than 5 µM.

On to `Clc1cccc(Nc2nccc(-c3cccnc3NCCCn3ccnc3)n2)c1` [Compound 80, (3-Chloro-phenyl)-{4-[2-(3-imidazol-1-yl-propylamino)-pyridin-3-yl]-pyrimidin-2-yl}-amine], for which the IC50 in test [1] is less than 5 µM; in test [2], less than 5 µM; in test [3], less than 5 µM; in test [4] it was less than 5 µM; in test [5], less than 5 µM; in test [6] it was 5 to 15 µM. The compound also returned a 50% inhibitory concentration (IC50) in test [7] of less than 5 µM.

With `NCCCCNc1ncccc1-c1ccnc(Nc2cccc(Cl)c2)n1` [Compound 84, N-{3-[2-(3-Chloro-phenylamino)-pyrimidin-4-yl]-pyridin-2-yl}-butane-1,4-diamine], the half-maximal inhibitory concentration (IC50) in test [1], in test [2], in test [3], in test [5], in test [6] and in test [7] was less than 5 µM throughout.

`COc1ncccc1-c1ccnc(Nc2cccc(C#N)c2)n1` [Compound 91, 3-[4-(2-Methoxy-pyridin-3-yl)-pyrimidin-2-ylamino]-benzonitrile]: the IC50 in test [1] was less than 5 µM; in test [2], less than 5 µM; in test [3], less than 5 µM; in test [4] it was more than 50 µM; in test [5], more than 50 µM; in test [6], 15 to 50 µM. Further, the IC50 in test [7] was less than 5 µM.

Take `COc1ncccc1-c1ccnc(Nc2cccc(S(C)(=O)=O)c2)n1` [Compound 93, (3-Methanesulfonyl-phenyl)-[4-(2-methoxy-pyridin-3-yl)-pyrimidin-2-yl]-amine]: the 50% inhibitory concentration (IC50) in test [1] is less than 5 µM; in test [2] it was less than 5 µM; in test [3], less than 5 µM; in test [5], less than 5 µM; in test [6], 15 to 50 µM; in test [7], less than 5 µM.

On to `COc1ncccc1-c1ccnc(Nc2cccc(S(N)(=O)=O)c2)n1` [Compound 99, 3-[4-(2-Methoxy-pyridin-3-yl)-pyrimidin-2-ylamino]-benzenesulfonamide], for which the IC50 is less than 5 µM in test [1]; less than 5 µM in test [2]; less than 5 µM in test [3]; 5 to 15 µM in test [4]; less than 5 µM in test [5]; less than 5 µM in test [6]. The compound also registered an IC50 in test [7] of less than 5 µM.
